# Test results reported in ChEMBL document CHEMBL5104199, “Design, Synthesis, and Biochemical and Biological Evaluation of Novel 7-Deazapurine Cyclic Dinucleotide Analogues as STING Receptor Agonists” (J Med Chem, 2022).
# Assays:
# [1] = Induction of IFNgamma secretion in human PBMC incubated for 16 hrs
# [2] = Cytotoxicity against human PBMC cells; type: toxicity, cell-based
# [3] = Induction of IFNalpha secretion in human PBMC incubated for 16 hrs
# [4] = Induction of TNFalpha secretion in human PBMC incubated for 16 hrs
# cells [5] = settings: Homo sapiens, HEK-293T
# Description: Agonist activity at human STING HAQ expressed in 293T cells by digitonin cell based assay
# cells [6] = settings: Homo sapiens, HEK-293T; remark: listed apart in the source
# Description: Agonist activity at human STING REF expressed in 293T cells by digitonin cell based assay
# cells [7] = settings: Homo sapiens, HEK-293T; remark: listed apart in the source
# Description: Agonist activity at human STING Q expressed in 293T cells by digitonin cell based assay
# [8] = molecular target: T1, Stimulator of interferon genes protein (Homo sapiens, UniProt Q86WV6); settings: filed as agonist
# T1 sequence (Q86WV6 whole entry): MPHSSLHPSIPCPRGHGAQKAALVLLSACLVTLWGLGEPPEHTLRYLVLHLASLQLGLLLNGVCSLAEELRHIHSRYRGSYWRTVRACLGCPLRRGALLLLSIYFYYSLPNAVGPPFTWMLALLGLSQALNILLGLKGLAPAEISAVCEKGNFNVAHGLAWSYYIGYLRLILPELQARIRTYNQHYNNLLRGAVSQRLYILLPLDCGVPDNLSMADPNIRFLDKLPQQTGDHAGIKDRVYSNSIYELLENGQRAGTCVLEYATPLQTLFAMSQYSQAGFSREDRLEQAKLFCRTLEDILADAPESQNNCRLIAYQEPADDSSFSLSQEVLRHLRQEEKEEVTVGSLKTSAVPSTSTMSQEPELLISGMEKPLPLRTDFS
# Description: Binding affinity to human wild type STING assessed as change in melting temperature by differential scanning fluorimetry (DSF) method
# cells [9] = settings: Homo sapiens, HEK-293T; remark: listed apart in the source
# Description: Agonist activity at human STING AQ expressed in 293T cells by digitonin cell based assay
# [10] = molecular target: T1, Stimulator of interferon genes protein; test: Agonist activity at human wild type STING expressed in 293T cells by digitonin cell based assay; set-up: species or system HEK293T
# [11] = molecular target: T1, Stimulator of interferon genes protein; test: Agonist activity at human wild type full length STING expressed in 293T cells incubated for 7 hrs by luciferase/cell based assay; set-up: species or system HEK-293T
Compound,EC50 [1] [µM],Activity [2],EC50 [3] [µM],EC50 [4] [µM],EC50 (cells [5]) [µM],EC50 (cells [6]) [µM],EC50 (cells [7]) [µM],ΔTm [8] [°C],EC50 (cells [9]) [µM],EC50 [10] [µM],EC50 [11] [µM]
Nc1nc2c(ncn2[C@@H]2O[C@@H]3COP(=O)(O)O[C@H]4[C@@H](O)[C@H](n5cnc6c(N)ncnc65)O[C@@H]4COP(=O)(O)O[C@H]3[C@H]2O)c(=O)[nH]1,17.2,Non-Toxic,7.65,18.7,–,–,–,–,–,–,–
Nc1nc2c(ncn2[C@@H]2O[C@@H]3COP(=O)(O)O[C@H]4[C@@H](O)[C@H](n5cc(-c6cc7ccccc7o6)c6c(N)ncnc65)O[C@@H]4COP(=O)(O)O[C@@H]2[C@@H]3O)c(=O)[nH]1,8.33,Non-Toxic,12.8,24.6,0.06,0.334,0.176,12.1,0.085,0.076,–
Nc1nc2c(ncn2[C@@H]2O[C@@H]3COP(=O)(O)O[C@H]4[C@@H](O)[C@H](n5cc(-c6ccccc6)c6c(N)ncnc65)O[C@@H]4COP(=O)(O)O[C@@H]2[C@@H]3O)c(=O)[nH]1,–,Non-Toxic,–,52.5,0.385,5.9,1.7,8.1,0.307,0.063,–
Nc1ncnc2c1c(-c1ccccc1)cn2[C@@H]1O[C@@H]2COP(=O)(O)O[C@@H]3[C@H](O)[C@@H](COP(=O)(O)O[C@H]2[C@H]1O)O[C@H]3n1cc(-c2ccccc2)c2c(N)ncnc21,–,–,–,–,> 45,> 45,> 45,-0.6,> 45,> 45,> 150
Nc1nc2c(ncn2[C@@H]2O[C@@H]3COP(=O)(O)O[C@H]4[C@@H](O)[C@H](n5cc(-c6ccc(-c7ccc8ccccc8c7)cc6)c6c(N)ncnc65)O[C@@H]4COP(=O)(O)O[C@@H]2[C@@H]3O)c(=O)[nH]1,1.77,Non-Toxic,5.09,53.9,0.132,1,0.95,13,0.16,0.032,–
Nc1nc2c(c(-c3ccccc3)cn2[C@@H]2O[C@@H]3COP(=O)(O)O[C@H]4[C@@H](O)[C@H](n5cc(-c6ccccc6)c6c(N)ncnc65)O[C@@H]4COP(=O)(O)O[C@@H]2[C@@H]3O)c(=O)[nH]1,–,–,–,–,9.42,19.5,0.271,1,10.3,6.41,> 150
Nc1nc2c(ncn2[C@@H]2O[C@@H]3COP(=O)(O)O[C@H]4[C@@H](O)[C@H](n5cc(-c6ccc7ccccc7c6)c6c(N)ncnc65)O[C@@H]4COP(=O)(O)O[C@@H]2[C@@H]3O)c(=O)[nH]1,–,Non-Toxic,–,98.8,0.695,1.4,0.7,14.4,0.55,0.048,–
Nc1nc2c(ncn2[C@@H]2O[C@@H]3COP(=O)(O)O[C@H]4[C@@H](O)[C@H](n5cc(-c6cccc7c6oc6ccccc67)c6c(N)ncnc65)O[C@@H]4COP(=O)(O)O[C@@H]2[C@@H]3O)c(=O)[nH]1,–,Non-Toxic,–,99.7,0.503,8.97,7.07,7.1,0.869,0.367,–
Nc1nc2c(ncn2[C@@H]2O[C@@H]3COP(=O)(O)O[C@H]4[C@@H](O)[C@H](n5cc(-c6cc7ccccc7s6)c6c(N)ncnc65)O[C@@H]4COP(=O)(O)O[C@@H]2[C@@H]3O)c(=O)[nH]1,0.87,Non-Toxic,4.04,1.43,0.195,0.35,0.25,13.5,0.33,0.035,–
Nc1nc2c(ncn2[C@@H]2O[C@@H]3COP(=O)(O)O[C@H]4[C@@H](O)[C@H](n5cc(-c6cccs6)c6c(N)ncnc65)O[C@@H]4COP(=O)(O)O[C@@H]2[C@@H]3O)c(=O)[nH]1,–,Non-Toxic,–,–,–,–,–,–,–,–,–
Nc1nc2c(ncn2[C@@H]2O[C@@H]3COP(=O)(O)O[C@H]4[C@@H](O)[C@H](n5cc(-c6ccc(-c7ccccc7)cc6)c6c(N)ncnc65)O[C@@H]4COP(=O)(O)O[C@@H]2[C@@H]3O)c(=O)[nH]1,2.05,Non-Toxic,7.43,13.6,0.173,0.346,0.235,12.3,0.092,0.013,–
Nc1nc2c(ncn2[C@@H]2O[C@@H]3COP(=O)(O)O[C@H]4[C@@H](O)[C@H](n5cc(-c6ccco6)c6c(N)ncnc65)O[C@@H]4COP(=O)(O)O[C@@H]2[C@@H]3O)c(=O)[nH]1,–,Non-Toxic,–,–,–,–,–,–,–,–,–
Nc1nc2c(ncn2[C@@H]2O[C@@H]3COP(=O)(O)O[C@H]4[C@@H](O)[C@H](n5cc(-c6ccccc6)c6c(N)ncnc65)O[C@@H]4COP(=O)(O)O[C@H]3[C@H]2O)c(=O)[nH]1,12.6,Non-Toxic,6.92,65.8,0.367,10.4,4.48,5.1,0.28,0.11,> 150
Nc1nc2c(ncn2[C@@H]2O[C@@H]3COP(=O)(O)O[C@H]4[C@@H](O)[C@H](n5cnc6c(N)ncnc65)O[C@@H]4COP(=O)(O)O[C@@H]2[C@@H]3O)c(=O)[nH]1,–,Non-Toxic,–,–,–,–,–,–,–,–,–
Nc1nc2c(ncn2[C@@H]2O[C@@H]3COP(=O)(O)O[C@@H]4[C@H](O)[C@@H](COP(=O)(O)O[C@@H]2[C@@H]3O)O[C@H]4n2cnc3c(N)ncnc32)c(=O)[nH]1,11.8,Non-Toxic,7.21,44.5,0.189,59.5,7.09,2.5,0.173,0.26,> 150
Nc1nc2c(ncn2[C@@H]2O[C@@H]3COP(=O)(O)O[C@H]4[C@@H](O)[C@H](n5cc(-c6cccc7ccccc67)c6c(N)ncnc65)O[C@@H]4COP(=O)(O)O[C@@H]2[C@@H]3O)c(=O)[nH]1,–,Non-Toxic,–,> 200,0.497,18.9,7.23,4.4,0.47,1.1,–
Nc1nc2c(ncn2[C@@H]2O[C@@H]3COP(=O)(O)O[C@H]4[C@@H](O)[C@H](n5cc(C6CC6)c6c(N)ncnc65)O[C@@H]4COP(=O)(O)O[C@@H]2[C@@H]3O)c(=O)[nH]1,–,Non-Toxic,–,–,–,–,–,–,–,–,–
Nc1nc2c(ncn2[C@@H]2O[C@@H]3COP(=O)(O)O[C@H]4[C@@H](O)[C@H](n5cc(-c6cc7ccccc7c7ccccc67)c6c(N)ncnc65)O[C@@H]4COP(=O)(O)O[C@@H]2[C@@H]3O)c(=O)[nH]1,–,Non-Toxic,> 200,> 200,0.9,> 45,> 45,4.4,1.4,0.061,–
Cc1cn([C@@H]2O[C@@H]3COP(=O)(O)O[C@@H]4[C@H](O)[C@@H](COP(=O)(O)O[C@H]3[C@H]2O)O[C@H]4n2cnc3c(=O)[nH]c(N)nc32)c2ncnc(N)c12,–,Non-Toxic,–,–,–,–,–,–,–,–,–
Nc1nc2c(ncn2[C@@H]2O[C@@H]3COP(=O)(O)O[C@H]4[C@@H](O)[C@H](n5cc(-c6ccc7c8c(cccc68)CC7)c6c(N)ncnc65)O[C@@H]4COP(=O)(O)O[C@@H]2[C@@H]3O)c(=O)[nH]1,85.2,Non-Toxic,74.7,> 200,1.63,> 45,35.9,2.5,1.53,1.16,> 150
